Literature values as cited in US20230321114A1, “METHODS OF TREATING AGE-RELATED COGNITIVE DECLINE” (Woolsey Pharmaceuticals, Inc., priority 2020, published 2023).

How the values were obtained:
[1] = in vivo, metabolite
memory in aging rats = settings: eighteen-month old rats, 0.1875 or 0.3750 mg per day, single daily injection

For `O=S(=O)(c1cccc2c(O)nccc12)N1CCCNCC1` [hydroxyfasudil], the half-life [1] is listed as “about 8 hours”, the spatial reference memory (memory in aging rats; Morris Water Maze) is listed as “not in spatial reference memory” and the working memory (memory in aging rats; Morris Water Maze (radial maze)) is listed as “improvements in working memory”.
